Peptide text beside a SMILES is read from it. * marks the point of attachment. 5FAM = O=C1OC2(c3ccc(O)cc3Oc3cc(O)ccc32)c2ccc(C(=O)*)cc21
What was measured:
[1] = target: T1, hRSV F protein 5-Helix Bundle (5HB) (Human respiratory syncytial virus A, UniProt P03420); test: Competitive FP binding assay; parameters: species or system hRSV strain A2; conditions: for inhibition at 100 µM: read-out: % Inhibition (100 µM)
hRSV = test: Antiviral activity of C20; type: cell-based; conditions: read-out: EC50, antiviral activity; methods only in supporting information
EBV gH/gL complex [2] = conditions: read-out: IC50 of binding to EBV gH/gL protein; cited from earlier work
hRSV 5HB = test: FP specificity cross-test: EBV gp42 FITC-30mer against hRSV 5HB; type: binding, hRSV strain A2; conditions: 5 nM FITC-30mer, wide range of 5HB concentrations
EBV gH/gL complex [3] = conditions: 5 nM Fl-C35, increasing amount of EBV gH/gL
[4] = target: T1, hRSV F protein 5-Helix Bundle (5HB); test: ELISA of Fl-C35 binding to 5HB; parameters: species or system hRSV strain A2; conditions: data in supporting information

CC[C@H](C)[C@H](N)C(=O)N[C@@H](CO)C(=O)N[C@@H](CCC(N)=O)C(=O)N[C@H](C(=O)N[C@@H](CC(N)=O)C(=O)N[C@@H](CCC(=O)O)C(=O)N[C@@H](CCCCN)C(=O)N[C@H](C(=O)N[C@@H](CC(N)=O)C(=O)N[C@@H](CCC(N)=O)C(=O)N[C@@H](CO)C(=O)N[C@@H](CC(C)C)C(=O)N[C@@H](C)C(=O)N[C@@H](Cc1ccccc1)C(=O)N[C@H](C(=O)N[C@@H](CCCNC(=N)N)C(=O)N[C@@H](CCCCN)C(=O)N[C@@H](CO)C(=O)N[C@@H](CC(=O)O)C(=O)N[C@@H](CCC(=O)O)C(=O)O)[C@@H](C)CC)[C@@H](C)CC)C(C)C [C20] (H-ISQVNEKINQSLAFIRKSDE-OH)
inhibition at 100 µM [1]: > 90% | EC50 (hRSV): > 12500 nM

KPNVEVWPVAAPPPVAEQEYGDKEVKLPHW [FITC-30mer]
IC50 (EBV gH/gL complex [2]): 1.3 nM | Binding of EBV gp42 FITC-30mer to hRSV 5HB (negative control) (hRSV 5HB): no evidence of nonspecific binding

CC[C@H](C)[C@H](NC(=O)[C@H](Cc1ccccc1)NC(=O)[C@H](C)NC(=O)[C@H](CC(C)C)NC(=O)[C@H](CO)NC(=O)[C@H](CCC(N)=O)NC(=O)[C@H](CC(N)=O)NC(=O)[C@@H](NC(=O)[C@H](CCCCN)NC(=O)[C@H](CCC(=O)O)NC(=O)[C@H](CC(N)=O)NC(=O)[C@@H](NC(=O)[C@H](CCC(N)=O)NC(=O)[C@H](CO)NC(=O)[C@@H](NC(=O)[C@H](CO)NC(=O)[C@H](C)NC(=O)[C@H](CC(=O)O)NC(=O)[C@H](Cc1ccccc1)NC(=O)[C@H](CCC(=O)O)NC(=O)[C@H](CC(=O)O)NC(=O)[C@H](CO)NC(=O)[C@@H]1CCCN1C(=O)[C@H](Cc1ccccc1)NC(=O)[C@@H](NC(=O)[C@H](CC(C)C)NC(=O)[C@@H]1CCCN1C(=O)[C@H](CC(=O)O)NC(=O)[C@@H](N)Cc1ccc(O)cc1)C(C)C)[C@@H](C)CC)C(C)C)[C@@H](C)CC)C(=O)N[C@@H](CCCNC(=N)N)C(=O)N[C@@H](CCCCN)C(=O)N[C@@H](CO)C(=O)N[C@@H](CC(=O)O)C(=O)N[C@@H](CCC(=O)O)C(=O)N[C@@H](CC(C)C)C(=O)O [C35] (H-YDPLVFPSDEFDASISQVNEKINQSLAFIRKSDEL-OH)
IC50 [1]: 38.5 nM | inhibition at 100 µM [1]: 100%

CC[C@H](C)[C@H](NC(=O)[C@H](Cc1ccccc1)NC(=O)[C@H](C)NC(=O)[C@H](CC(C)C)NC(=O)[C@H](CO)NC(=O)[C@H](CCC(N)=O)NC(=O)[C@H](CC(N)=O)NC(=O)[C@@H](NC(=O)[C@H](CCCCN)NC(=O)[C@H](CCC(=O)O)NC(=O)[C@H](CC(N)=O)NC(=O)[C@@H](NC(=O)[C@H](CCC(N)=O)NC(=O)[C@H](CO)NC(=O)[C@@H](NC(=O)[C@H](CO)NC(=O)[C@H](C)NC(=O)[C@H](CC(=O)O)NC(=O)[C@H](Cc1ccccc1)NC(=O)[C@H](CCC(=O)O)NC(=O)[C@H](CC(=O)O)NC(=O)[C@H](CO)NC(=O)[C@@H]1CCCN1C(=O)[C@H](Cc1ccccc1)NC(=O)[C@@H](NC(=O)[C@H](CC(C)C)NC(=O)[C@@H]1CCCN1C(=O)[C@H](CC(=O)O)NC(=O)[C@H](Cc1ccc(O)cc1)NC(=O)c1ccc2c(c1)C(=O)OC21c2ccc(O)cc2Oc2cc(O)ccc21)C(C)C)[C@@H](C)CC)C(C)C)[C@@H](C)CC)C(=O)N[C@@H](CCCNC(=N)N)C(=O)N[C@@H](CCCCN)C(=O)N[C@@H](CO)C(=O)N[C@@H](CC(=O)O)C(=O)N[C@@H](CCC(=O)O)C(=O)N[C@@H](CC(C)C)C(=O)O [Fl-C35] (5FAM-YDPLVFPSDEFDASISQVNEKINQSLAFIRKSDEL-OH)
Binding of Fl-C35 to EBV gH/gL complex (negative control) (EBV gH/gL complex [3]): no evidence of nonspecific binding | Specific binding of Fl-C35 to 5HB in ELISA [4]: confirmed

CC[C@H](C)[C@H](NC(=O)[C@H](Cc1ccccc1)NC(=O)[C@H](C)NC(=O)[C@H](CC(C)C)NC(=O)[C@H](CO)NC(=O)[C@H](CCC(N)=O)NC(=O)[C@H](CC(N)=O)NC(=O)[C@@H](NC(=O)[C@H](CCCCN)NC(=O)[C@H](CCC(=O)O)NC(=O)[C@H](CC(N)=O)NC(=O)[C@@H](NC(=O)[C@H](CCC(N)=O)NC(=O)[C@H](CO)NC(=O)[C@@H](NC(=O)[C@H](CO)NC(=O)[C@H](C)NC(=O)[C@H](CC(=O)O)NC(=O)[C@H](Cc1ccccc1)NC(=O)[C@H](CCC(=O)O)NC(=O)[C@H](CC(=O)O)NC(=O)[C@H](CO)NC(=O)[C@@H]1CCCN1C(=O)[C@H](Cc1ccccc1)NC(=O)[C@@H](N)C(C)C)[C@@H](C)CC)C(C)C)[C@@H](C)CC)C(=O)N[C@@H](CCCNC(=N)N)C(=O)N[C@@H](CCCCN)C(=O)N[C@@H](CO)C(=O)N[C@@H](CC(=O)O)C(=O)N[C@@H](CCC(=O)O)C(=O)O [C30] (H-VFPSDEFDASISQVNEKINQSLAFIRKSDE-OH)
inhibition at 100 µM [1]: 100%
